Data from patent publication US12527785B2, “Renin-angiotensin-aldosterone system (RAAS) inhibitors in the treatment of pancreatic ductal carcinoma” (OCHSNER CLINIC FOUNDATION, priority 2023, dated 2026).

Legend:
[1] = system: PDCA cells (PANC-1, HS766T, PaCa9); experiment: In vitro PDCA cell proliferation (WST1), summary statements over the cell lines tested; assay type: cell-based; conditions: 10 μM; all cell lines tested
Experimental: (§1) PDA cell line (PANC-1 or HS766T) or patient cancer cells (PaCa9) were trypsinized with 1% trypsin in Hank's Balanced Salt Solution (HBSS), counted, washed, and resuspended in serum free AIM media (ThermoFisher Scientific, Waltham, MA) or complete Dulbecco's Modified Eagle Medium (DMEM) supplemented with 10% fetal bovine serum, […], 100 U/ml of penicillin G, and […] of streptomycin. Cells at a concentration of 2-4×10^4 cells/well in 100 μl culture medium were seeded in triplicate in 96 well plates, then cultured in a humidified incubator at 37° C. and 5% CO2. On the next day, cell supernatant was discarded and compounds (e.g., drugs) of the present disclosure in 200 μl medium were added with the concentrations indicated in the following Examples. After 72 hours of culture, cell proliferation reagent WST1 (20 μl/well, Sigma Aldrich Inc, St. Louis, MO) were added and plates were read using an ELISA reader at 2 hours and 4 hours under the wavelength of 450 nm. The measured absorbance (OD value) was recorded and graphed and statistically analyzed using GraphPad Prism 8, t-test, or t-test with Bonferroni correction.

PANC-1 cells = experiment: WST1 cell proliferation assay, PANC-1 cells; assay type: cell-based, human; conditions: 10% FCS-DMEM
Experimental: as §1

[2] = Serum concentration of EMA401 after oral dosing in humans; assay type: in vivo, human
[3] = system: PaCa-9 PDAC patient tumor cells; experiment: WST1 cell proliferation assay, PaCa-9 PDAC patient tumor cells; assay type: cell-based, human; conditions: 10% FCS-DMEM
Experimental: as §1, with “Louis, MO) were added and plates were read using an ELISA reader at 2 hours and 4 hours under the wavelength of 450 nm.” left out

[4] = system: PANC-1 tumor orthotopic xenograft; experiment: PANC-1 tumor orthotopic xenograft mouse model (BLI tumor burden, tumor weight); assay type: in vivo; conditions: for Tumor weight / Tumor weight, mean: 100 mg/kg EMA401, DWK 8.5; for Tumor weight: Table 17A, control 0.9444; for Tumor weight lowered versus control: EMA401 (100 mg/kg); for BLI data, % of control / BLI data, mean: four weeks; for BLI data, mean: control 3.003
Description: (§2) Human PDCA cell line PANC-1 was transduced with pre-made lentiviral vectors encoding luciferase (firefly)/red fluorescent protein (RFP) to enable monitoring of the growth of primary tumor and metastasis. […] For in vivo experiments, Nonobese diabetic/severe combined immunodeficiencyNOD-SCID mice (Jackson Labs, Bar Harbor, ME, or inhouse breeding) were first brought under anesthesia with isoflurane (2.5% in 100% oxygen, 1 L/min) in an induction chamber and maintained under adequate anesthesia (isoflurane inhalation) while being laid on a warming pad throughout the surgical procedure. For tumor generation, 5×10^4 luciferase-tagged PANC-1 cells were co-inoculated with 3×10^5 lymph node stromal cell (LNSC) analog HK cells. The mice received a 0.75-1.2 cm long incision (on the left side of the body slightly medial to the splenic silhouette) to exteriorize the spleen and pancreas. While gently retracting the pancreas laterally, a 30 G needle was inserted along the length of the pancreas from the tail to the pancreatic head region. Then, 10 μl of cell suspension was injected as the needle was withdrawn to the mid-body of the pancreas. The needle was removed, and the area was inspected for leakage and bleeding. The pancreas and spleen were internalized with forceps and the abdominal muscle layer was closed with interrupted stitches (3-0 silk suture). The overlying skin was closed with a second set of interrupted stitches. Buprenorphine SR-LAB was injected subcutaneously immediately after the surgery for pain relief.
After the surgery, tumor growth and metastatic tumor burden were monitored and assessed weekly for luciferase activity by bioluminescence imaging (BLI) using Lago Imaging System (Spectral Instruments Imaging, Tucson, AZ). Mice were anesthetized using isoflurane for all imaging procedures. Mice were administered intraperitoneally with luciferin (10 mg/kg) and imaged in 10-20 minutes for maximum luciferase signal plateau. Images were analyzed using Aura Imaging software. Once the BLI levels of xenografted tumor reached 5×10^8 photons (around 7-9 weeks post PANC-1 cell injection), the mice were grouped based on their BLI level and compounds (e.g., drugs) of the present disclosure were given by gavage daily to each group for 4 weeks. […] Upon sacrifice after 4 weeks of treatment, primary tumors and mouse organs were harvested, weighed, imaged, and formalin-fixed for (hematoxylin and eosin) H&E and immunohistochemistry staining. Data was statistically analyzed using t-test, or t-test with Bonferroni correction.

HS766T cells = experiment: WST1 cell proliferation assay, HS766T cells; assay type: cell-based; conditions: 10% FCS-DMEM
Experimental: as §1

[5] = Toxicity, body weight and deaths observed in the in vivo xenograft studies
Description: as §2
After the surgery, tumor growth and metastatic tumor burden were monitored and assessed weekly for luciferase activity by bioluminescence imaging (BLI) using Lago Imaging System (Spectral Instruments Imaging, Tucson, AZ). Mice were anesthetized using isoflurane for all imaging procedures. Mice were administered intraperitoneally with luciferin (10 mg/kg) and imaged in 10-20 minutes for maximum luciferase signal plateau. Images were analyzed using Aura Imaging software. […] […] […] Data was statistically analyzed using t-test, or t-test with Bonferroni correction.

## COc1ccc2c(c1OCc1ccccc1)C[C@@H](C(=O)O)N(C(=O)C(c1ccccc1)c1ccccc1)C2 [EMA401]
[1]
  Effective (statistically significant, p<0.05, decrease in cell proliferation by WST1 assay): effective in all cell lines tested
PANC-1 cells; EMA 10 μM, Table 1, 2 h, control 3.618
  cell proliferation, WST1 absorbance (OD value, 450 nm), mean: 2.976
PANC-1 cells; EMA 50 μM, Table 1, 2 h, control 3.618
  cell proliferation, WST1 absorbance (OD value, 450 nm), mean: 2.957
PANC-1 cells; EMA401 10 μM, Table 5A, 2×10^4 cells per well, Medium/DMSO 3.348
  cell proliferation, WST1 absorbance (OD value, 450 nm), mean: 2.872
PANC-1 cells; EMA401 50 μM, Table 5A, 2×10^4 cells per well, Medium/DMSO 3.348
  cell proliferation, WST1 absorbance (OD value, 450 nm), mean: 0.691
[2]; 100 mg EMA401 p.o. in men and women, converted with mol wt 507.6
  Serum concentration: 2 µM
[2]; 400 mg/day EMA401 in humans
  Serum concentration: 8 µM
[2]; 600 mg/day p.o., extrapolated (would produce)
  Serum concentration: 12 µM
[3]; EMA 10 μM, Table 3, 1 h, Medium/DMSO 3.571
  cell proliferation, WST1 absorbance (OD value, 450 nm), mean: 2.088
[3]; EMA 10 μM, Table 4, 2 h, Medium/DMSO >3.60
  cell proliferation, WST1 absorbance (OD value, 450 nm), mean: 2.910
[3]; EMA 50 μM, Table 3, 1 h, Medium/DMSO 3.571
  cell proliferation, WST1 absorbance (OD value, 450 nm), mean: 2.000
[3]; EMA 50 μM, Table 4, 2 h, Medium/DMSO >3.60
  cell proliferation, WST1 absorbance (OD value, 450 nm), mean: 2.447
[3]; EMA401 10 μM, Table 7A, 2×10^4 cells per well, control 3.535
  cell proliferation, WST1 absorbance (OD value, 450 nm), mean: 3.257
[3]; EMA401 50 μM, Table 7A, 2×10^4 cells per well, control 3.535
  cell proliferation, WST1 absorbance (OD value, 450 nm), mean: 0.541
[4]; all animals
  Tumor weight: 0.7215 g
[4]; excluding one outlier
  Tumor weight: 0.6174 (Excluding
[4]; Table 17B (repeated study), control 0.8041
  Tumor weight, mean: 0.5383 g
[4]; Table 17C (both studies pooled, including the outlier), control 0.8763
  Tumor weight, mean: 0.6347 g
[4]; 100 mg/kg EMA401 for 8 weeks, first study, all animals, did not reach statistical significance
  Tumor weight fall versus control: 24%
[4]; 100 mg/kg EMA401 for 8 weeks, first study, one outlier omitted, p=0.036
  Tumor weight decrease versus control: 35%
[4]; EMA401 60 mg/kg, short-term (4 week) low dose study
  Effect on tumor weight: did not reduce tumor weight
[4]; 4 week study, not statistically significant
  Tumor weight lowered versus control: 26%
[4]; after 8 weeks treatment (example 5), significant
  Tumor weight lowered versus control: 33%
[4]; EMA (60 mg/kg)
  BLI data, % of control: 59%
  BLI data, mean: 1.782
[4]; EMA (100 mg/kg)
  BLI data, % of control: 61%
  BLI data, mean: 1.834
HS766T cells; EMA 10 μM, Table 2, 2 h, control 3.214
  cell proliferation, WST1 absorbance (OD value, 450 nm), mean: 1.360
HS766T cells; EMA 50 μM, Table 2, 2 h, control 3.214
  cell proliferation, WST1 absorbance (OD value, 450 nm), mean: 1.41
HS766T cells; EMA401 10 μM, Table 6A, 2×10^4 cells per well, control 3.339
  cell proliferation, WST1 absorbance (OD value, 450 nm), mean: 3.290
HS766T cells; EMA401 50 μM, Table 6A, 2×10^4 cells per well, control 3.339
  cell proliferation, WST1 absorbance (OD value, 450 nm), mean: 0.593
[5]; 100 mg/kg EMA401 for 8 weeks
  End of study body weights versus control: not different
[5]; 100 mg/kg EMA401 for 8 weeks (Table 16, Tables 17A-17C)
  Drug-related toxicity: No drug-related toxicity was observed
[5]; 100 mg/kg EMA401 for 8 weeks, one control animal died
  Deaths during the study: no EMA401-treated animal died
